The results in this text go back to PMC6112750 (Oncotarget, 2018).

For this assay, the target named is T1, SUV39H2 (Homo sapiens, UniProt Q9H5I1).
T1 construct: N-terminal GST fused SUV39H2
The assay is described as follows: radiometric SPA methyltransferase assay with biotin-H3 ([…]-21) peptide and [3H]-SAM. Type of assay: biochemical.

T1 sequence (Q9H5I1 whole entry, the tested form may be a part): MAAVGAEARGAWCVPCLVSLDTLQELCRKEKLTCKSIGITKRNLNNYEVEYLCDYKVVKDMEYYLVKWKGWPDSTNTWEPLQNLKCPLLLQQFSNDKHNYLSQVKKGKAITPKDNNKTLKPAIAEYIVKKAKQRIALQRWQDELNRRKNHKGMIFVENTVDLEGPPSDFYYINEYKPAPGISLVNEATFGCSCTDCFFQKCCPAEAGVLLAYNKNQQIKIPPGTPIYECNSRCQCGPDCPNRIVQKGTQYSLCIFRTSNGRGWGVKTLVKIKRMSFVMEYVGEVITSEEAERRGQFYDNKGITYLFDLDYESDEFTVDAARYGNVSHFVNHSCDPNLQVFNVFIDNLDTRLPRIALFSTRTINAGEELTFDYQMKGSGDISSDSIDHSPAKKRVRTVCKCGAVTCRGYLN

For the compound `COc1cc(OC)c(-c2cn3ccc(N[C@H]4CC[C@@H](NCc5ccc([N+](=O)[O-])cc5)CC4)cc3n2)cc1Cl` [OTS193320, (1s,4s)-N^1-(2-(5-chloro-2,4-dimethoxyphenyl)imidazo[1,2-a]pyridin-7-yl)-N^4-(4-nitrobenzyl)cyclohexane-1,4-diamine], half-maximal inhibition (IC50) was put at 22.2 nM.
